Measured values from patent US20240336588A1, “COMPOSITIONS AND METHODS FOR ANTIOXIDANT AND ANTI-INFLAMMATORY THERAPEUTICS” (AVANTI BIOSCIENCES INC., priority 2021, published 2024).

Molecular target: DYRK1A (HT-497, 6×His tagged rat truncated DYRK1A isoform X1 residues 1-497) (Rattus norvegicus (Rat), UniProt Q63470)
Experiment: DYRK1A ELISA assay (HT-PRD phosphorylation)
Assay type: biochemical
Conditions: 100 µM ATP, 5 ng HT-497, 30 min at 30° C.
Description: Compounds of Table 1, above, were examined in vitro for activity against DYRK1A, DYRK1B, DYRK2 via an ELISA assay.
DYRK1A assay. […] After blocking, wells were washed extensively with dilution buffer before subjecting to phosphorylation. […] At the end point, wells were washed with ˜350 μl dilution buffer three times to terminate the reaction. […] Each point was run in quadruplicate with DMSO present in all assays at 0.2% final concentration. […] HT-PRD phosphorylation was subsequently determined by the sandwich antibody staining protocol, first with 100 μl mouse mAb 3D3 specific for detecting DYRK1A-phosphorylated PRD (60 min at room temperature) then with 100 μl alkaline phosphatase (AP)-linked anti-mouse secondary antibody (60 min at room temperature), followed by colorimetric reaction with 100 μl PNPP solution (PNPP substrate tablet, Thermo Fisher). […] The readings were then recorded for subsequent IC50 calculation. The DYRK1A assay protocol can also support DYRK1B and DYRK2 phosphorylation reactions in the enzyme concentration-dependent manner; therefore, the method was adapted for measuring the activity of candidate compounds against DYRK1B and DYRK2. For DYRK2, the reactions were performed as described above with 6 ng HT-DYRK2 (6×His tagged full-length human DYRK2 isoform 1). For DYRK1B, the assays were also similarly conducted but with 70 ng GST-DYRK1B (glutathione S-transferase tagged full length human DYRK1B isoform p65) and an extended kinase reaction time of 60 min.
Dilution factors for both mAb 3D3 and secondary antibody were pre-determined for each batch of antibody to ensure that neither antibody was limiting in the assay.
Data transformation, calculation, plotting, curve fitting, and IC 50 calculation were performed in KaleidaGraph (http://www.synergy.com/wordpress_650164087; Mac version 4.1). Data was corrected for background (readings from wells with only PNPP) before subsequent manipulations. […] The resulting residual activity was then plotted against its corresponding inhibitor concentrations in semi-log graph and the plot was fit to the sigmoidal equation, y=a+(b−a)/(1+(x/c)^d), for IC50 calculation.

Row | IC50 [nM] | SMILES
1 | > 100 | O=C(O[C@@H]1Cc2c(O)cc(O)cc2O[C@@H]1c1ccc(O)c(O)c1)c1cc(O)c(O)c(O)c1 [Compound 6, (2R,3R)-2-(3,4-dihydroxyphenyl)-5,7-dihydroxychroman-3-yl 3,4,5-trihydroxybenzoate]
2 | > 100 | O=C(O[C@@H]1Cc2c(O)cc(O)cc2O[C@H]1c1ccc(O)c(O)c1)c1cc(O)c(O)c(O)c1 [Compound 7, (2S,3R)-2-(3,4-dihydroxyphenyl)-5,7-dihydroxychroman-3-yl 3,4,5-trihydroxybenzoate]
3 | > 100 | O=C(O[C@@H]1Cc2c(O)cc(O)cc2O[C@@H]1c1cc(O)c(O)c(O)c1)c1ccc(O)c(O)c1 [Compound 11, (2R,3R)-5,7-dihydroxy-2-(3,4,5-trihydroxyphenyl)chroman-3-yl 3,4-dihydroxybenzoate]
4 | > 1000 | O=C(N[C@H]1Cc2c(O)cc(O)cc2O[C@@H]1c1cc(O)c(O)c(O)c1)c1ccc(F)c(F)c1 [Compound 17, N-((2R,3S)-5,7-dihydroxy-2-(3,4,5-trihydroxyphenyl)chroman-3-yl)-3,4-difluorobenzamide]
5 | > 100 | COc1cc(C(=O)O[C@H]2Cc3c(O)cc(O)cc3O[C@@H]2c2cc(O)c(O)c(O)c2)cc(O)c1O [Compound 18, (2R,3S)-5,7-dihydroxy-2-(3,4,5-trihydroxyphenyl)chroman-3-yl 3,4-dihydroxy-5-methoxybenzoate]
6 | > 100 | O=C(O[C@H]1Cc2c(O)cc(O)cc2O[C@@H]1c1cc(O)c(O)c(O)c1)c1ccc(O)c(O)c1 [Compound 19, (2R,3S)-5,7-dihydroxy-2-(3,4,5-trihydroxyphenyl)chroman-3-yl 3,4-dihydroxybenzoate]
7 | > 1000 | O=C(O[C@H]1Cc2c(O)cc(O)cc2O[C@@H]1c1cc(O)c(O)c(O)c1)c1ccc(O)cc1 [Compound 20, (2R,3S)-5,7-dihydroxy-2-(3,4,5-trihydroxyphenyl)chroman-3-yl 4-hydroxybenzoate]
8 | > 1000 | O=C(O[C@@H]1Cc2c(O)cc(O)cc2O[C@@H]1c1cc(O)c(O)c(O)c1)c1ccc(O)cc1 [Compound 21, (2R,3R)-5,7-dihydroxy-2-(3,4,5-trihydroxyphenyl)chroman-3-yl 4-hydroxybenzoate]
9 | > 1000 | O=C(O[C@H]1Cc2c(O)cc(O)cc2O[C@@H]1c1cc(O)c(O)c(O)c1)c1ccc(F)c(F)c1 [Compound 24, (2R,3S)-5,7-dihydroxy-2-(3,4,5-trihydroxyphenyl)chroman-3-yl 3,4-difluorobenzoate]
10 | > 1000 | O=C(O[C@@H]1Cc2c(O)cc(O)cc2O[C@@H]1c1cc(O)c(O)c(O)c1)c1ccc(F)c(F)c1 [Compound 25, (2R,3R)-5,7-dihydroxy-2-(3,4,5-trihydroxyphenyl)chroman-3-yl 3,4-difluorobenzoate]
11 | > 100 | O=C(O[C@H]1Cc2c(O)cc(O)cc2O[C@@H]1c1cc(O)c(O)c(O)c1)c1cnc(O)c(O)c1 [Compound 27, (2R,3S)-5,7-dihydroxy-2-(3,4,5-trihydroxyphenyl)chroman-3-yl 5,6-dihydroxynicotinate]
12 | > 100 | O=C(O[C@@H]1Cc2c(O)cc(O)cc2O[C@H]1c1cc(O)c(O)c(O)c1)c1ccc(O)c(O)c1 [Compound 34, (2S,3R)-5,7-dihydroxy-2-(3,4,5-trihydroxyphenyl)chroman-3-yl 3,4-dihydroxybenzoate]
13 | > 1000 | Nc1ncc(C(=O)O[C@@H]2Cc3c(O)cc(O)cc3O[C@H]2c2cc(O)c(O)c(O)c2)cc1O [Compound 36, (2S,3R)-5,7-dihydroxy-2-(3,4,5-trihydroxyphenyl)chroman-3-yl 6-amino-5-hydroxynicotinate]
14 | > 1000 | CS(=O)(=O)Nc1ccc(C(=O)O[C@@H]2Cc3c(O)cc(O)cc3O[C@H]2c2cc(O)c(O)c(O)c2)cc1O [Compound 37, (2S,3R)-5,7-dihydroxy-2-(3,4,5-trihydroxyphenyl)chroman-3-yl 3-hydroxy-4-(methylsulfonamido)benzoate]

The remaining lines, values behind:

Row | SMILES | IC50 [nM]
15 | COc1cc(C(=O)O[C@@H]2Cc3c(O)cc(O)cc3O[C@@H]2c2cc(O)c(O)c(O)c2)cc(O)c1O [Compound 8, (2R,3R)-5,7-dihydroxy-2-(3,4,5-trihydroxyphenyl)chroman-3-yl 3,4-dihydroxy-5-methoxybenzoate] | > 100
16 | O=C(N[C@H]1Cc2c(O)cc(O)cc2O[C@@H]1c1cc(O)c(O)c(O)c1)c1cc(O)c(O)c(O)c1 [Compound 9, N-((2R,3S)-5,7-dihydroxy-2-(3,4,5-trihydroxyphenyl)chroman-3-yl)-3,4,5-trihydroxybenzamide] | > 100
17 | COc1cc(C(=O)N[C@H]2Cc3c(O)cc(O)cc3O[C@@H]2c2cc(O)c(O)c(O)c2)cc(O)c1O [Compound 10, N-((2R,3S)-5,7-dihydroxy-2-(3,4,5-trihydroxyphenyl)chroman-3-yl)-3,4-dihydroxy-5-methoxybenzamide] | > 1000
18 | CCNC(=O)Oc1cc(C(=O)O[C@@H]2Cc3c(O)cc(O)cc3O[C@@H]2c2cc(O)c(O)c(O)c2)cc(O)c1O [Compound 12, (2R,3R)-5,7-dihydroxy-2-(3,4,5-trihydroxyphenyl)chroman-3-yl 3-((ethylcarbamoyl)oxy)-4,5-dihydroxybenzoate] | > 100
19 | CCNC(=O)Oc1c(O)cc(C(=O)O[C@@H]2Cc3c(O)cc(O)cc3O[C@@H]2c2cc(O)c(O)c(O)c2)cc1O [Compound 13, (2R,3R)-5,7-dihydroxy-2-(3,4,5-trihydroxyphenyl)chroman-3-yl 4-((ethylcarbamoyl)oxy)-3,5-dihydroxybenzoate] | > 1000
20 | CC(C)C(=O)Oc1c(O)cc(C(=O)O[C@@H]2Cc3c(O)cc(O)cc3O[C@@H]2c2cc(O)c(O)c(O)c2)cc1O [Compound 14, (2R,3R)-5,7-dihydroxy-2-(3,4,5-trihydroxyphenyl)chroman-3-yl 3,5-dihydroxy-4-(isobutyryloxy)benzoate] | > 100
21 | O=C(N[C@H]1Cc2c(O)cc(O)cc2O[C@@H]1c1cc(O)c(O)c(O)c1)c1ccc(O)c(O)c1 [Compound 15, N-((2R,3S)-5,7-dihydroxy-2-(3,4,5-trihydroxyphenyl)chroman-3-yl)-3,4-dihydroxybenzamide] | > 1000
22 | O=C(N[C@H]1Cc2c(O)cc(O)cc2O[C@@H]1c1cc(O)c(O)c(O)c1)c1ccc(O)cc1 [Compound 16, N-((2R,3S)-5,7-dihydroxy-2-(3,4,5-trihydroxyphenyl)chroman-3-yl)-4-hydroxybenzamide] | > 1000
23 | O=C(O[C@H]1Cc2c(O)cc(O)cc2O[C@@H]1c1cc(O)c(O)c(O)c1)c1ccncc1 [Compound 22, (2R,3S)-5,7-dihydroxy-2-(3,4,5-trihydroxyphenyl)chroman-3-yl isonicotinate] | > 1000
24 | O=C(O[C@@H]1Cc2c(O)cc(O)cc2O[C@@H]1c1cc(O)c(O)c(O)c1)c1ccncc1 [Compound 23, (2R,3R)-5,7-dihydroxy-2-(3,4,5-trihydroxyphenyl)chroman-3-yl isonicotinate] | > 1000
25 | O=C(O[C@@H]1Cc2c(O)cc(O)cc2O[C@@H]1c1cc(O)c(O)c(O)c1)c1ccn(O)c(=O)c1 [Compound 26, (2R,3R)-5,7-dihydroxy-2-(3,4,5-trihydroxyphenyl)chroman-3-yl 1-hydroxy-2-oxo-1,2-dihydropyridine-4-carboxylate] | > 1000
26 | O=C(O[C@H]1Cc2c(O)cc(O)cc2O[C@@H]1c1ccc(O)c(O)c1)c1ccc(O)c(O)c1 [Compound 28, (2R,3S)-2-(3,4-dihydroxyphenyl)-5,7-dihydroxychroman-3-yl 3,4-dihydroxybenzoate] | > 1000
27 | Nc1ncc(C(=O)O[C@H]2Cc3c(O)cc(O)cc3O[C@@H]2c2ccc(O)c(O)c2)cc1O [Compound 29, (2R,3S)-2-(3,4-dihydroxyphenyl)-5,7-dihydroxychroman-3-yl 6-amino-5-hydroxynicotinate] | > 1000
28 | CS(=O)(=O)Nc1ccc(C(=O)O[C@H]2Cc3c(O)cc(O)cc3O[C@@H]2c2ccc(O)c(O)c2)cc1O [Compound 30, (2R,3S)-2-(3,4-dihydroxyphenyl)-5,7-dihydroxychroman-3-yl 3-hydroxy-4-(methylsulfonamido)benzoate] | > 1000
29 | O=C(O[C@@H]1Cc2c(O)cc(O)cc2O[C@H]1c1ccc(O)c(O)c1)c1ccc(O)c(O)c1 [Compound 31, (2S,3R)-2-(3,4-dihydroxyphenyl)-5,7-dihydroxychroman-3-yl 3,4-dihydroxybenzoate] | > 100
30 | O=C(O[C@@H]1Cc2cccc(O)c2C[C@H]1c1cc(O)c(O)c(O)c1)c1cc(O)c(O)c(O)c1 [Compound 33, (2R,3S)-5-hydroxy-3-(3,4,5-trihydroxyphenyl)-1,2,3,4-tetrahydronaphthalen-2-yl 3,4,5-trihydroxybenzoate] | > 100
31 | Nc1ccc(C(=O)O[C@@H]2Cc3c(O)cc(O)cc3O[C@H]2c2cc(O)c(O)c(O)c2)cc1O [Compound 35, (2S,3R)-5,7-dihydroxy-2-(3,4,5-trihydroxyphenyl)chroman-3-yl 4-amino-3-hydroxybenzoate] | > 1000
